Series [1] has as its system phenylbenzoquinone-induced writhing. The experiment in a line: phenylbenzoquinone-induced writhing test in mice (analgesic activity). Type of series: in vivo. As to conditions: ratio of activity relative to the parent NSAID; oral gavage 1 hour prior to i.p. phenylbenzoquinone; male CD-1 mice. The procedure: The phenylbenzoquinone-induced writhing test in mice was used to measure analgesic activity. The ability of the compounds to inhibit phenylbenzoquinone-induced writhing in mice was measured using the method of Siegmund et al, Proc. Soc. Exp. Biol. Med. 95: 729-731, 1957. Male CD-1 mice (Charles River Laboratories, Wilmington, Mass.) weighing 20-25 g were fasted overnight. Vehicle or compounds were administered by oral gavage 1 hour prior to i.p. injection of 2 mg/kg of phenylbenzoquinone. Five minutes after the i.p. injection of phenylbenzoquinone, the number of writhes in a 5 minute period was counted.

In series [2] the test system is carrageenan rat paw edema. The experiment in a line: rat paw edema test (antiinflammatory activity). As to conditions: ratio of activity relative to the parent NSAID; oral gavage one hour prior to carrageenan; paw volume three hours later; male Sprague-Dawley rats. The class given is in vivo. The procedure:
The rat paw edema test was used to measure antiinflammatory activity. The rat paw edema test was performed according to the method of Winter et al, Proc. Soc. Exp. Biol. Med. 111: 544-547, 1962. Male Sprague-Dawley rats (250-275 g) were fasted overnight and dosed by oral gavage with vehicle or suspensions of compound one hour prior to the subplantar injection of 50 μl of 1% suspension of carrageenan. Three hours later, the paw volume was measured and compared with the initial volume measured immediately after carrageenan injection.
(In general: In the carrageenan paw model, swelling and tenderness develop within hours.)

The test system of another series is gastric lesion. Put plainly: rat gastric lesion test. Type of series: in vivo, rats. Here is the method:
The rat gastric lesion test, described by Kitagawa et al, J. Phirmacol. Exp. Ther., 253:1133-1137 (1990), and Al-Ghamdi et al, J. Int. Med. Res., 19:2242 (1991), was used to evaluate the activity of compounds to produce gastric lesion. Male Sprague Dawley rats (Charles River Laboratories, Wilmington, Mass.) weighing 230-250 g were used for the experiments. The rats were housed with laboratory chow and water ad libitum prior to the study. The rats were fasted for 24 hours with free access to water and then dosed by oral gavage with vehicle or with test compounds given at a volume of 0.5 mL/100 g. Food was withheld for 18 hours after the initial dosing. Rats were euthanized by CO2 eighteen hours after dosing. The stomachs were dissected along the greater curvature, washed with a directed stream of 0.9% saline and pinned open on a sylgard based petri dish for examination of the hemorrhagic lesion. Gastric lesion score was expressed in mm and calculated by summning the length of each lesion.

Setting [3] is: ratio of activity relative to the parent NSAID, oral gavage, fasted rats, eighteen hours after dosing.
Setting [4] is: 100 μmole/Kg, ratio of activity relative to the parent NSAID, oral gavage, fasted rats, eighteen hours after dosing.

Where a name gives a salt, the structure may show the parent alone.

The melting point is the temperature, or range, at which the solid turns liquid.

As for “2-{2-[(2,6-Dichlorophenyl)amino]phenyl}-1-[2-(methyl{[(nitrosothio) cyclohexyl]methyl}amino)ethylthio]ethan-1-one [Example 32]”, the “Relative Activity Analgesia” value in series [1] came to 1.
For the compound `CN1CCC(CCOC(=O)Cc2ccccc2Nc2c(Cl)cccc2Cl)(SN=O)CC1` (as salt: citrate) [Example 13, 2-[1-Methyl-4-(nitrosothio)-4-piperidyl]ethyl 2-{2-[(2,6-dichlorophenyl)amino]phenyl}acetate citrate], the melting point was found to be 130 °C.
Consider `O=C(O)Cc1ccccc1Nc1c(Cl)cccc1Cl` [Diclofenac, diclofenac, reference compound], for which the “Relative Activity Analgesia” value in series [1] worked out at 1. In series [2], the “Relative Activity Antiinflammation” value was 1. The “Relative Activity Gastric Lesion” value in the series with gastric lesion (setting [3]) is 1.
Take `CC1(SN=O)CCN(CCOC(=O)Cc2ccccc2Nc2c(Cl)cccc2Cl)CC1.Cl` [Example 1, 2-[4-Methyl-4-(nitrosothio)piperidyl]ethyl 2-{2-[(2,6-dichlorophenyl)amino]phenyl}acetate hydrochloride]: the “Relative Activity Analgesia” value in series [1] amounted to 1.5. The “Relative Activity Antiinflammation” value in series [2] was 1.2. In the series with gastric lesion (setting [3]), the “Relative Activity Gastric Lesion” value was 0.1.
Consider `CN(CCOC(=O)Cc1ccccc1Nc1c(Cl)cccc1Cl)CC1(SN=O)CCCCC1.Cl` [Example 2, 2-(Methyl{[(nitrosothio)cyclohexyl]methyl}amino)ethyl 2-{2-[(2,6-dichlorophenyl)amino]phenyl}acetate hydrochloride], for which the “Relative Activity Analgesia” value in series [1] was found to be 1. For the same compound, the “Relative Activity Antiinflammation” value in series [2] was determined as 1.2. Also, the “Relative Activity Gastric Lesion” value with gastric lesion (setting [3]) worked out at 0.02.
Consider `CN(CCCOC(=O)Cc1ccccc1Nc1c(Cl)cccc1Cl)CC1(SN=O)CCCCC1` [Example 4, 3-{Methyl{[(nitrosothio)cyclohexyl]methyl}amino)propyl 2-{2-[(2,6-dichlorophenyl)amino]phenyl}acetate], for which the “Relative Activity Analgesia” value in series [1] turned out to be 0.9. The “Relative Activity Antiinflammation” value in series [2] was 1.3. For the same compound, in the series with gastric lesion (rat, in vivo, po), the “Relative Activity Gastric Lesion” value is on record as 0.01.
For `Cl.O=NSC1(CCOC(=O)Cc2ccccc2Nc2c(Cl)cccc2Cl)CCNCC1` [Example 6, 2-[4-(Nitrosothio)-4-piperdyl]ethyl 2-{2-[(2,6-dichlorophenyl)amino]phenyl}acetate hydrochloride], in the series on gastric lesion (setting [3]), the “Relative Activity Gastric Lesion” value is recorded as 0.02.
With `CC(C)(CN1CCN(CCOC(=O)Cc2ccccc2Nc2c(Cl)cccc2Cl)CC1)SN=O.O=C(O)CC(O)(CC(=O)O)C(=O)O` [Example 8, 2-{4-[2-Methyl-2-(nitrosothio)propyl]piperazinyl}ethyl 2-{2-[(2,6-dichlorophenyl)amino]phenyl}acetate citrate], in series [1], the “Relative Activity Analgesia” value is recorded as 1.2. For the same compound, the “Relative Activity Antiinflammation” value in series [2] came to 1.4. Moreover, the “Relative Activity Gastric Lesion” value in the series on gastric lesion (setting [3]) amounted to 0.04.
Turning to `CN1CCC(CN(C)CCCOC(=O)Cc2ccccc2Nc2c(Cl)cccc2Cl)(SN=O)CC1` [Example 12, 3-(Methyl{[1-methyl-4-(nitrosothio)(4-piperidyl)]methyl}amino)propyl 2-{2-[(2,6-dichlorophenyl)amino]pheny}acetate], the “Relative Activity Gastric Lesion” value in the series with gastric lesion (setting [3]) came out at 0.06.
In the case of `CN1CCC(CCOC(=O)Cc2ccccc2Nc2c(Cl)cccc2Cl)(SN=O)CC1` [Example 13, 2-[1-Methyl-4-(nitrosothio)-4-piperidyl]ethyl 2-{2-[(2,6-dichlorophenyl)amino]phenyl}acetate citrate], in series [2], the “Relative Activity Antiinflammation” value was 1. Also, the “Relative Activity Gastric Lesion” value in the series on gastric lesion (setting [4]) is given as 0.1 (100 μmole/Kg).
Regarding `COc1ccc2cc([C@H](C)C(=O)OCCC3(SN=O)CCN(C)CC3)ccc2c1.O=C(O)CC(O)(CC(=O)O)C(=O)O` [Example 15, 2-[1-Methyl-4-(nitrosothio)-4-piperidyl]ethyl (2S) 2-(6-methoxy(2-naphthyl)) propanoate citrate], in series [1], the “Relative Activity Analgesia” value amounted to 1. In addition, the “Relative Activity Antiinflammation” value in series [2] was 1. The “Relative Activity Gastric Lesion” value in the series on gastric lesion (setting [4]) is 0.1 (100 μmole/Kg).
`COc1ccc2c(c1)c(CC(=O)OCCC1(SN=O)CCN(C)CC1)c(C)n2C(=O)c1ccc(Cl)cc1.O=C(O)CC(O)(CC(=O)O)C(=O)O` [Example 17, 2-[1-Methyl-4-(nitrosothio)-4-piperidyl]ethyl 2{1-[(4-chlorophenyl)carbonyl]-5-methoxy-2-methylindol-3-yl}acetate citrate]: the “Relative Activity Analgesia” value in series [1] stood at 1. In the series on gastric lesion (setting [4]), the “Relative Activity Gastric Lesion” value is <0.07 (100 μmole/Kg).
On to `COc1ccc2cc([C@H](C)C(=O)OCCN(C)CC3(SN=O)CCN(C)CC3)ccc2c1.Cl` [Example 22, 2-(Methyl{[1-methyl-4-(nitrosothio)(4-piperidyl)]methyl}amino)ethyl (2S)-2-(6-methoxy(2-naphthyl))propanoate hydrochloride], for which the “Relative Activity Analgesia” value in series [1] is listed as 1. In addition, in series [2], the “Relative Activity Antiinflammation” value is 1. Besides, in the series with gastric lesion (setting [4]), the “Relative Activity Gastric Lesion” value was 0.1 (100 μmole/Kg).
For the compound `CN(CCSC(=O)Cc1ccccc1Nc1c(Cl)cccc1Cl)CC(C)(C)SN=O.Cl` [Example 31, 2-{2-[(2,6-Dichlorophenyl)amino]phenyl}-1-(2-{methyl[2-methyl-2-(nitrosothio)propyl]amino}ethylthio)ethan-1-one hydrochloride], the “Relative Activity Analgesia” value in series [1] is listed as 1. Further, in series [2], the “Relative Activity Antiinflammation” value is 1. In addition, the “Relative Activity Gastric Lesion” value in the series on gastric lesion (setting [4]) was 0.02 (100 μmole/Kg).
For the compound `CN(Cc1ccc(OC(=O)Cc2ccccc2Nc2c(Cl)cccc2Cl)cc1)CC(C)(C)SN=O` [Example 33, 4-({Methyl[2-methyl-2-(nitrosothio)propyl]amino}methyl)phenyl 2-{2-[(2,6-dichlorophenyl)amino]phenyl}acetate], the “Relative Activity Analgesia” value in series [1] worked out at 1. Besides, the “Relative Activity Antiinflammation” value in series [2] is 1.
`COc1ccc2cc([C@H](C)C(=O)OCCCN3C(=O)OC[C@H]3C(C)(C)SN=O)ccc2c1` [Example 44, 3-{(4S)-4-[1-Methyl-1-(nitrosothio)ethyl]-2-oxo-1,3-oxazolidin-3-yl}propyl (2S)-2-(6-methoxy(2-naphthyl))propanoate] came in with a melting point of 116 to 117 °C.
Turning to `COc1ccc2cc([C@H](C)C(=O)OC[C@@H]3NC(=O)[C@@H](C(C)(C)SN=O)NC3=O)ccc2c1` [Example 47, {(2S,5S)-5-[1-Methyl-1-(nitrosothio)ethyl]-3,6-dioxopiperazin-2-yl}methyl (2S)-2-(6-methoxy(2-naphthyl))propanoate], the melting point is > 180 °C (dec.).
